Data from ChEMBL document CHEMBL3044536, “The synthesis, anti-inflammatory, and anti-microbial activity evaluation of new series of 4-(3-arylureido)phenyl-1,4-dihydropyridine urea derivatives” (2013).
In brackets after ≈: the same amount, converted by molar mass. Activity calls are given as the source filed them. The calls are words filed in the database; no cut-off is given here.

What was measured:
Fusarium solani [1] = assay: Antifungal activity against Fusarium solani; format: functional
Aspergillus flavus [2] = assay: Antifungal activity against Aspergillus flavus; format: functional
Aspergillus niger [3] = assay: Antifungal activity against Aspergillus niger; format: functional
Candida albicans [4] = assay: Antifungal activity against Candida albicans; format: functional
Bacillus subtilis [5] = assay: Antibacterial activity against Bacillus subtilis; format: functional
THP-1 [6] = assay: Anti-inflammatory activity in Homo sapiens (human) THP1 cells assessed as inhibition of LPS-induced IL6 production at 10 uM incubated for 30 min prior to LPS-challenge measured after 24 hr by ELISA; format: functional
Escherichia coli [7] = assay: Antibacterial activity against Escherichia coli; format: functional
Salmonella typhimurium [8] = assay: Antibacterial activity against Salmonella enterica subsp. enterica serovar Typhimurium; format: functional
THP-1 [9] = assay: Anti-inflammatory activity in Homo sapiens (human) THP1 cells assessed as inhibition of LPS-induced TNFalpha production at 10 uM incubated for 30 min prior to LPS-challenge measured after 24 hr by ELISA; format: functional
Staphylococcus aureus [10] = assay: Antibacterial activity against Staphylococcus aureus; format: functional
Bacillus subtilis [11] = assay: Antibacterial activity against Bacillus subtilis up to 200 ug/ml; format: functional, organism-based
Fusarium solani [12] = assay: Antifungal activity against Fusarium solani up to 200 ug/ml; format: functional, organism-based
Aspergillus flavus [13] = assay: Antifungal activity against Aspergillus flavus up to 200 ug/ml; format: functional, organism-based
Staphylococcus aureus [14] = assay: Antibacterial activity against Staphylococcus aureus up to 200 ug/ml; format: functional, organism-based
Fusarium solani [15] = assay: Antifungal activity against Fusarium solani relative to miconazole; format: functional
Aspergillus niger [16] = assay: Antifungal activity against Aspergillus niger relative to miconazole; format: functional
Salmonella typhimurium [17] = assay: Ratio of ciprofloxacin MIC to compound MIC for Salmonella enterica subsp. enterica serovar Typhimurium; format: functional
Staphylococcus aureus [18] = assay: Ratio of ciprofloxacin MIC to compound MIC for Staphylococcus aureus; format: functional
Aspergillus flavus [19] = assay: Antifungal activity against Aspergillus flavus relative to miconazole; format: functional
Escherichia coli [20] = assay: Ratio of ciprofloxacin MIC to compound MIC for Escherichia coli; format: functional
Candida albicans [21] = assay: Antifungal activity against Candida albicans relative to miconazole; format: functional
Bacillus subtilis [22] = assay: Ratio of ciprofloxacin MIC to compound MIC for Bacillus subtilis; format: functional
Aspergillus niger [23] = assay: Antifungal activity against Aspergillus niger up to 200 ug/ml; format: functional, organism-based
THP-1 [24] = assay: Anti-inflammatory activity in Homo sapiens (human) THP1 cells assessed as inhibition of LPS-induced IL6 production at 1 uM incubated for 30 min prior to LPS-challenge measured after 24 hr by ELISA; format: functional
THP-1 [25] = assay: Anti-inflammatory activity in Homo sapiens (human) THP1 cells assessed as inhibition of LPS-induced TNFalpha production at 1 uM incubated for 30 min prior to LPS-challenge measured after 24 hr by ELISA; format: functional
Candida albicans [26] = assay: Antifungal activity against Candida albicans up to 200 ug/ml; format: functional, organism-based

| SMILES | MIC (Fusarium solani [1]) [µg/mL] | MIC (Aspergillus flavus [2]) [µg/mL] | MIC (Aspergillus niger [3]) [µg/mL] | MIC (Candida albicans [4]) [µg/mL] | MIC (Bacillus subtilis [5]) [µg/mL] | inhibition at 10 µM (THP-1 [6]) [%] | MIC (Escherichia coli [7]) [µg/mL] | MIC (Salmonella typhimurium [8]) [µg/mL] | inhibition at 10 µM (THP-1 [9]) [%] | MIC (Staphylococcus aureus [10]) [µg/mL] | other results |
| --- | --- | --- | --- | --- | --- | --- | --- | --- | --- | --- | --- |
| Clc1ccc(COC(Cn2ccnc2)c2ccc(Cl)cc2Cl)c(Cl)c1 (stereo unspecified) [MICONAZOLE] | 15 (≈ 36 µM) | 20 (≈ 48.1 µM) | 20 (≈ 48.1 µM) | 25 (≈ 60.1 µM) | – | – | – | – | – | – | – |
| CCOC(=O)C1=C(C)NC(C)=C(C(=O)OCC)C1c1ccc(NC(=O)Nc2ccc(F)cc2)cc1 | 85 (≈ 177 µM) | 85 (≈ 177 µM) | 45 (≈ 93.5 µM) | 65 (≈ 135 µM) | 80 (≈ 166 µM) | 68 | 65 (≈ 135 µM) | 65 (≈ 135 µM) | 42 | 40 (≈ 83.1 µM) | – |
| O=C(O)c1cn(C2CC2)c2cc(N3CCNCC3)c(F)cc2c1=O [CIPROFLOXACIN] | – | – | – | – | 25 (≈ 75.4 µM) | – | 20 (≈ 60.4 µM) | 25 (≈ 75.4 µM) | – | 20 (≈ 60.4 µM) | – |
| CCOC(=O)C1=C(C)NC(C)=C(C(=O)OCC)C1c1ccc(NC(=O)Nc2cc(F)ccc2F)cc1 | – | – | 90 (≈ 180 µM) | 85 (≈ 170 µM) | – | 96 | 70 (≈ 140 µM) | 90 (≈ 180 µM) | 78 | – | Activity (Bacillus subtilis [11]): inactive; Activity (Fusarium solani [12]): inactive; Activity (Aspergillus flavus [13]): inactive; Activity (Staphylococcus aureus [14]): inactive |
| CCOC(=O)C1=C(C)NC(C)=C(C(=O)OCC)C1c1ccc(NC(=O)Nc2cc(C(F)(F)F)ccc2Cl)cc1 | 90 (≈ 159 µM) | 90 (≈ 159 µM) | 45 (≈ 79.5 µM) | 65 (≈ 115 µM) | – | 12 | 65 (≈ 115 µM) | 90 (≈ 159 µM) | 0 | 80 (≈ 141 µM) | Activity (Bacillus subtilis [11]): inactive |
| CCOC(=O)C1=C(C)NC(C)=C(C(=O)OCC)C1c1ccc(NC(=O)Nc2ccc(C#N)cc2)cc1 | 25 (≈ 51.2 µM) | 20 (≈ 40.9 µM) | 10 (≈ 20.5 µM) | 20 (≈ 40.9 µM) | 10 (≈ 20.5 µM) | 8 | 15 (≈ 30.7 µM) | 10 (≈ 20.5 µM) | 0 | 10 (≈ 20.5 µM) | Activity (Fusarium solani [15]): >50%; Activity (Aspergillus niger [16]): >50%; Ratio (Salmonella typhimurium [17]): 2; Ratio (Staphylococcus aureus [18]): 2; Activity (Aspergillus flavus [19]): >50%; Ratio (Escherichia coli [20]): 2; Activity (Candida albicans [21]): >50%; Ratio (Bacillus subtilis [22]): 2 |
| CCOC(=O)C1=C(C)NC(C)=C(C(=O)OCC)C1c1ccc(NC(=O)Nc2ccc(Cl)cc2Cl)cc1 | 25 (≈ 47 µM) | 20 (≈ 37.6 µM) | 10 (≈ 18.8 µM) | 15 (≈ 28.2 µM) | 35 (≈ 65.7 µM) | 24 | 10 (≈ 18.8 µM) | 20 (≈ 37.6 µM) | 11 | 20 (≈ 37.6 µM) | – |
| CCOC(=O)C1=C(C)NC(C)=C(C(=O)OCC)C1c1ccc(N)cc1 | 90 (≈ 261 µM) | 90 (≈ 261 µM) | – | 90 (≈ 261 µM) | 85 (≈ 247 µM) | 0 | 40 (≈ 116 µM) | 45 (≈ 131 µM) | 0 | 60 (≈ 174 µM) | Activity (Aspergillus niger [23]): inactive |
| CCOC(=O)C1=C(C)NC(C)=C(C(=O)OCC)C1c1ccc(NC(=O)Nc2ccc(F)cc2F)cc1 | 20 (≈ 40 µM) | 35 (≈ 70.1 µM) | 20 (≈ 40 µM) | 35 (≈ 70.1 µM) | 50 (≈ 100 µM) | 54 | 25 (≈ 50 µM) | 25 (≈ 50 µM) | 28 | 45 (≈ 90.1 µM) | Ratio (Salmonella typhimurium [17]): 2; Ratio (Staphylococcus aureus [18]): 2; Ratio (Escherichia coli [20]): 2; Ratio (Bacillus subtilis [22]): 2 |
| CCOC(=O)C1=C(C)NC(C)=C(C(=O)OCC)C1c1ccc(NC(=O)Nc2ccc(Cl)cc2C(F)(F)F)cc1 | 60 (≈ 106 µM) | 80 (≈ 141 µM) | 85 (≈ 150 µM) | 50 (≈ 88.3 µM) | 70 (≈ 124 µM) | 91 | 45 (≈ 79.5 µM) | 60 (≈ 106 µM) | 83 | 55 (≈ 97.2 µM) | – |
| C[C@@H]1C[C@H]2[C@@H]3CCC4=CC(=O)C=C[C@]4(C)[C@@]3(F)[C@@H](O)C[C@]2(C)[C@@]1(O)C(=O)CO [DEXAMETHASONE] | – | – | – | – | – | – | – | – | – | – | inhibition at 1 µM (THP-1 [24]): 80%; inhibition at 1 µM (THP-1 [25]): 71% |
| CCOC(=O)C1=C(C)NC(C)=C(C(=O)OCC)C1c1ccc(NC(=O)Nc2cc(Cl)ccc2Cl)cc1 | 10 (≈ 18.8 µM) | 20 (≈ 37.6 µM) | 30 (≈ 56.3 µM) | 10 (≈ 18.8 µM) | 25 (≈ 47 µM) | 51 | 15 (≈ 28.2 µM) | 15 (≈ 28.2 µM) | 36 | 15 (≈ 28.2 µM) | Activity (Fusarium solani [15]): >50%; Activity (Aspergillus niger [16]): >50%; Activity (Aspergillus flavus [19]): >50%; Activity (Candida albicans [21]): >50% |
| CCOC(=O)C1=C(C)NC(C)=C(C(=O)OCC)C1c1ccc(NC(=O)Nc2ccc(C(F)(F)F)cc2)cc1 | 90 (≈ 169 µM) | 70 (≈ 132 µM) | 55 (≈ 103 µM) | 45 (≈ 84.7 µM) | 85 (≈ 160 µM) | 86 | 90 (≈ 169 µM) | 90 (≈ 169 µM) | 74 | 60 (≈ 113 µM) | – |
| CCOC(=O)C1=C(C)NC(C)=C(C(=O)OCC)C1c1ccc(NC(=O)Nc2ccc(Cl)cc2)cc1 | 20 (≈ 40.2 µM) | 20 (≈ 40.2 µM) | 20 (≈ 40.2 µM) | 30 (≈ 60.2 µM) | 80 (≈ 161 µM) | 18 | 20 (≈ 40.2 µM) | 35 (≈ 70.3 µM) | 0 | 65 (≈ 131 µM) | – |
| CCOC(=O)C1=C(C)NC(C)=C(C(=O)OCC)C1c1ccc([N+](=O)[O-])cc1 | 90 (≈ 240 µM) | – | – | – | – | 0 | 90 (≈ 240 µM) | 90 (≈ 240 µM) | 0 | 90 (≈ 240 µM) | Activity (Bacillus subtilis [11]): inactive; Activity (Aspergillus flavus [13]): inactive; Activity (Aspergillus niger [23]): inactive; Activity (Candida albicans [26]): inactive |
